Measurements: article PMC11674118, “New High-Affinity Peptide Ligands for Kv1.2 Channel: Selective Blockers and Fluorescent Probes” (Cells, 2024)
Like-named read-outs stand apart in the source and are kept apart here. Where a SMILES comes first, the peptide text is derived from it. Bridges are numbered along the chain shown (N, C = ends).

Tests used:
K-Kv1.2 channel = assay: Whole-cell patch-clamp of Neuro2a cells transfected with K-Kv1.2; format: cell-based, human; details: for block of current through K-Kv1.2: 10 nM peptide, whole-cell, representative traces (Figure 8d-g)
Protocol: The patch-clamp method (whole-cell configuration) was used to measure membrane ion currents as described earlier. All the measurements were carried out at room temperature in a buffer containing (mM) 140 NaCl, 2.8 KCl, 2 MgCl2, 2 CaCl2, 10 HEPES, and 10 glucose (pH 7.4). Resistance of the micropipette tip was 6–8 MΩ. The pipette solution contained (mM) 140 KCl, 6 CaCl2, 2 MgCl2, 2 MgATP, 0.4 NaGTP, 10 HEPES, and 20 BAPTA/KOH (pH 7.3). The holding potential was −40 mV. The membrane potential increased from −70 to +70 mV with the 20 mV step each 20 s and returned to −40 mV. The duration of voltage pulses was 200 ms.
Measurements were carried out in 24–48 h after transfection of cells. HgTx1 (2 nM), HgTx-G (7.5 nM), Ce1 (10 nM), and Ce4 (10 nM) were dissolved in the extracellular buffer.

Kv1.1 channel (K-Kv1.1) [1] = assay: Competitive displacement of A-HgTx from complexes with K-Kv1.1 on Neuro2a cells; format: binding; details: for Kd: displacement of A-HgTx (2 nM) from K-Kv1.1, Neuro2a cells (Figure S7), read-out: Kap, Kv1.1
From the text: Content of secondary structures in the studied peptides
Table S1. Content of secondary structures in the studied peptides (%) according to the CD analysis.
Peptide α-helix β-sheet Turns Random coil
Studies of affinity of Ce1 and Ce4 peptides to Kv1.1 and Kv1.3 channels Affinity of MgTx to Kv1.3 channel and peptides Ce1 and Ce4 to Kv1.1 and Kv1.3 channels was studied using previously developed analytical systems based on fluorescent ligand A-HgTx and Kv1.1 (Kv1.3) channels expressed in the membrane of Neuro2a cells in the form of the conjugates with mKate2 fluorescent protein (K-Kv1.1 and K-Kv1.3). The approach based on the competitive displacement of A-HgTx (2 nM) from the complex with the channel by the increasing concentration of the studied peptide (Figure S6) and the previously approved formalism (described in the Materials and Methods section) were used to evaluate Kap values for MgTx, Ce1 and Ce4 peptides. For the complexes of MgTx, Ce1 and Ce4 with Kv1.3 channel the Kap values are 1.4±0.7, 13±8 and 30±10 nM, respectively. For the complex of Ce1 with Kv1.1 channel, Kap is equal to 11±5 nM. Since Ce4 […]
(Figure S6b), Kap of the complex between Ce4 and Kv1.1 is estimated to be higher than 300 nM.
Figure S7. Competitive displacement of A-HgTx (2 nM) from the complexes with K-Kv1.1 (a, b) and K-Kv1.3 (c) by Ce1, Ce4 and MgTx peptides. (a,c) The dependences of the Rav/Rav0 parameter (see the Materials and Methods section) on the concentration C of the added competitor are shown. Data are averaged over three independent experiments and presented as mean±SEM. (b) Histogram showing the effect of 1 µM Ce4 on the binding of A-HgTx (2 nM) to K-Kv1.1.
Molecular modeling of Kv1.2 channel and its complexes with peptide blockers
(1 picture or pasted object on this page, not shown here)

Kv1.1 channel (K-Kv1.1) [2] = details: similar analytical system, read-out: Kap, Kv1.1; cited from earlier work
From the text: Table 2 Sequences of Ce1, Ce4, HgTx1, and MgTx peptides and dissociation constants (Kap, nM) of their complexes with Kv1.2, Kv1.1, and Kv1.3 channels. | column: Kap, nM

Kv1.2 channels = details: mammalian cells with depolarized membranes; read-out: 50% inhibition of the Rb+ flux through Kv1.2; cited from earlier work
From the text: Kap of MgTx in our experiments is consistent with the last value.

| Structure (SMILES) | block of current through K-Kv1.2 (K-Kv1.2 channel) | Kd (Kv1.1 channel (K-Kv1.1) [1]) | displacement of A-HgTx (2 nM) from the complex with Kv1.1 channel (Kv1.1 channel (K-Kv1.1) [1]; till the 1 µM concentration of peptide) | Kd (Kv1.1 channel (K-Kv1.1) [2]) | block of K-Kv1.2 channel currents (K-Kv1.2 channel; 2 nM HgTx1, whole-cell, room temperature, n = 10) | IC50 (Kv1.2 channels) |
| --- | --- | --- | --- | --- | --- | --- |
| CC[C@H](C)[C@H](NC(=O)[C@@H](NC(=O)[C@@H](N)[C@@H](C)O)C(C)C)C(=O)N[C@@H](CC(N)=O)C(=O)N[C@H](C(=O)N[C@@H](CCCCN)C(=O)N[C@H]1CSSC[C@@H]2NC(=O)[C@H](CCCCN)NC(=O)[C@H](C)NC(=O)CNC(=O)[C@H](C)NC(=O)[C@H](Cc3c[nH]cn3)NC(=O)[C@@H]3CCCN3C(=O)CNC(=O)[C@H](Cc3ccc(O)cc3)NC(=O)[C@H](CC(C)C)NC(=O)[C@H](CC(=O)O)NC(=O)[C@H](CCCCN)NC(=O)[C@@H]3CSSC[C@@H](C(=O)N[C@@H](Cc4ccc(O)cc4)C(=O)N[C@@H](CC(N)=O)C(=O)N[C@@H](CC(N)=O)C(=O)O)NC(=O)[C@H](CCCCN)NC(=O)[C@H](CSSC[C@H](NC(=O)[C@H](CCC(N)=O)NC(=O)[C@H](CCCCN)NC(=O)[C@@H]4CCCN4C(=O)[C@H](CO)NC(=O)[C@H]([C@@H](C)O)NC1=O)C(=O)N[C@@H](CC(C)C)C(=O)N[C@@H](CCCCN)C(=O)N1CCC[C@H]1C(=O)N3)NC(=O)[C@H](CCCCN)NC(=O)CNC(=O)[C@H](CC(N)=O)NC(=O)[C@H](CCSC)NC2=O)C(C)C [Ce1] (H-TVINVKCTSPKQCLKPCKDLYGPHAGAKCMNGKCKCYNN-OH; disulfide 7-29, 13-34, 17-36 (inferred); N-terminus and C-terminus assumed) | block current through the channel | 11000 ± 5000 pM |  |  |  |  |
| CC[C@H](C)[C@H](NC(=O)[C@H](CCCCN)NC(=O)[C@H](Cc1ccc(O)cc1)NC(=O)[C@@H]1CSSC[C@@H]2NC(=O)[C@@H]3CCCN3C(=O)[C@H](CC(C)C)NC(=O)[C@H](CC(C)C)NC(=O)[C@@H]3CSSC[C@H](NC(=O)[C@H](CCCCN)NC(=O)CNC(=O)[C@H](CC(N)=O)NC(=O)[C@H](CCSC)NC(=O)[C@H](CSSC[C@H](NC(=O)[C@H](CCCCN)NC(=O)[C@@H](NC(=O)[C@H](CC(N)=O)NC(=O)[C@@H](NC(=O)[C@@H](NC(=O)[C@@H](N)[C@@H](C)O)[C@@H](C)CC)[C@@H](C)CC)C(C)C)C(=O)N[C@@H]([C@@H](C)O)C(=O)N[C@@H](CO)C(=O)N4CCC[C@H]4C(=O)N[C@@H](CCCCN)C(=O)N[C@@H](CCC(N)=O)C(=O)N3)NC(=O)[C@H](CCCCN)NC(=O)[C@H](C)NC(=O)CNC(=O)[C@H](C)NC(=O)[C@H](Cc3c[nH]cn3)NC(=O)[C@H]([C@@H](C)CC)NC(=O)CNC(=O)[C@H](Cc3ccc(O)cc3)NC(=O)[C@H]([C@@H](C)CC)NC(=O)[C@H](CCC(=O)O)NC(=O)[C@H](CCCCN)NC2=O)C(=O)N[C@@H](CCCCN)C(=O)N1)C(=O)O [Ce4] (H-TIINVKCTSPKQCLLPCKEIYGIHAGAKCMNGKCKCYKI-OH; disulfide 7-29, 13-34, 17-36 (inferred); N-terminus and C-terminus assumed) | block current through the channel | > 300000 pM | does not displace A-HgTx |  |  |  |
| CC[C@H](C)[C@@H]1NC(=O)CNC(=O)[C@H](Cc2ccccc2)NC(=O)[C@H](CCC(N)=O)NC(=O)[C@H](C)NC(=O)[C@H](CCCCN)NC(=O)[C@@H]2CSSC[C@@H](C(=O)N[C@@H](Cc3ccc(O)cc3)C(=O)N3CCC[C@H]3C(=O)N[C@@H](Cc3c[nH]cn3)C(=O)O)NC(=O)[C@H](CCCCN)NC(=O)[C@@H]3CSSC[C@H](NC(=O)[C@H](CCC(N)=O)NC(=O)[C@H](CCCCN)NC(=O)[C@@H]4CCCN4C(=O)[C@H](CO)NC(=O)[C@H]([C@@H](C)O)NC(=O)[C@@H](NC(=O)[C@H](CCCCN)NC(=O)[C@@H](NC(=O)[C@H](CC(=O)O)NC(=O)[C@@H](NC(=O)[C@@H](NC(=O)[C@@H](N)[C@@H](C)O)C(C)C)[C@@H](C)CC)C(C)C)CSSC[C@H](NC(=O)[C@H](CCCCN)NC(=O)[C@H](C)NC(=O)CNC(=O)[C@H](C)NC(=O)[C@H](CCCNC(=N)N)NC1=O)C(=O)N[C@@H](CCSC)C(=O)N[C@@H](CC(N)=O)C(=O)NCC(=O)N[C@@H](CCCCN)C(=O)N3)C(=O)N[C@@H](CC(C)C)C(=O)N1CCC[C@H]1C(=O)N1CCC[C@H]1C(=O)N2 [HgTx1, hongotoxin 1] (H-TVIDVKCTSPKQCLPPCKAQFGIRAGAKCMNGKCKCYPH-OH; disulfide 7-29, 13-34, 17-36 (inferred); N-terminus and C-terminus assumed) |  |  |  | 30 ± 20 pM | 84 ± 2% | 140 pM |
